A short description of assay [1]: reduction of Shn3 3'UTR-driven luciferase in osteoblasts – cell-based, Clone20 osteoblasts, firefly luciferase, cherry-picked, dose response (AID 624132).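 Also: firefly luciferase luminescence from reporter carrying the Shn3 3'UTR in osteoblasts.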 In kind it is functional.
Assay [2] addresses T1, Nucleotide-binding oligomerization domain-containing protein 1 (Homo sapiens, UniProt Q9Y239).
T1 sequence (Q9Y239 whole entry): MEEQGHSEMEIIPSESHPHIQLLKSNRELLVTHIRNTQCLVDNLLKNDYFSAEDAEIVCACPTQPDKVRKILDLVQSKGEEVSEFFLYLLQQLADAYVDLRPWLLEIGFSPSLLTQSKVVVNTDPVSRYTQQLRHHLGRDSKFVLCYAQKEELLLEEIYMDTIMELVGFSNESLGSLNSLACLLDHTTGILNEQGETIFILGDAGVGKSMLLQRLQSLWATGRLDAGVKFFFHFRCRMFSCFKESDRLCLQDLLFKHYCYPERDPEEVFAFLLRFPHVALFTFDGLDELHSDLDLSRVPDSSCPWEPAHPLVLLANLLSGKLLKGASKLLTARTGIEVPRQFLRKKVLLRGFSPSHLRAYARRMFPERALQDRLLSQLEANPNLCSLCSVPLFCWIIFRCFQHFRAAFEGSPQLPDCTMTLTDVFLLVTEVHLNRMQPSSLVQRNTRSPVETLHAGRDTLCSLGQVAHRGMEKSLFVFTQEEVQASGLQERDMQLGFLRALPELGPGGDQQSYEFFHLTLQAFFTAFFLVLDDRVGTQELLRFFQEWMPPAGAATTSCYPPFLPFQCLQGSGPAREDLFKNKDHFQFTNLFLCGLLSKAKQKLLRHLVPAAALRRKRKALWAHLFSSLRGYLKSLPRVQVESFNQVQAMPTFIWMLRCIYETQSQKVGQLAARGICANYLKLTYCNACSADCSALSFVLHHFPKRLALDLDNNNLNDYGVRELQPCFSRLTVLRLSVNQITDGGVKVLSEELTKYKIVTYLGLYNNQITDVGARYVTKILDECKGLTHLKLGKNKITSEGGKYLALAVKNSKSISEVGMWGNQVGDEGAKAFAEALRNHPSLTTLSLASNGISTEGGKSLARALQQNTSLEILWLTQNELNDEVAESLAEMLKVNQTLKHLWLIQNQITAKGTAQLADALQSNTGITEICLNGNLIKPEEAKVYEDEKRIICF
Kind of assay: SAR analysis of compounds that inhibit NOD1 - Set 3. [Related pubchem assays (depositor defined):AID1566, AID1575, AID1578, AID1849, AID1852, AID2333, AID2335, AID2466]. In kind it is functional.

Assay [3] can be described thus: non-specific 3'UTR reporter inhibition in Clone20-Shn3RL – cell-based, Renilla luciferase, cherry-picked, counter-screen for Shn3 inhibitor project, dose response (AID 624133). In kind it is functional.
For assay [4], the target named is T2, Interleukin-8 (Homo sapiens, UniProt P10145).
T2 sequence (P10145 whole entry): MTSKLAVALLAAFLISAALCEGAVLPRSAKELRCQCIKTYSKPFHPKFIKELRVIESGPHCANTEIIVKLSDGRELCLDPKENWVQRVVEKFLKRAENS
Kind of assay: SAR analysis of Tumor necrosis factor alpha (TNF-alpha) induced IL-8 secretion in MCF-7/NOD1 cells - Set 2. [Related pubchem assays (depositor defined):AID1575, AID2250, AID2260]. In kind it is functional, cell-based.

Assay [5] has as its system HEK293. Kind of assay: SAR analysis of compounds that are cytotoxic to HEK293 - Set 2. [Related pubchem assays (depositor defined):AID1575, AID1578, AID1849, AID2001, AID2333, AID2334, AID2335, AID2337, AID2800]. To be noted: Homo sapiens. In kind it is functional, cell-based.
Assay [6] concerns the target T3, Nucleotide-binding oligomerization domain-containing protein 2 (Homo sapiens, UniProt Q9HC29). The assay is described as follows: inhibition of MDP-driven NOD2 NF-kB reporter – cell-based, set 3, SAR follow-up (AID 2799). In kind it is functional.
For assay [7], the target named is T3, Nucleotide-binding oligomerization domain-containing protein 2. Kind of assay: inhibition of NOD2 signaling – set 2, SAR follow-up (AID 2475). In kind it is functional.
Assay [8] has as its target T1, Nucleotide-binding oligomerization domain-containing protein 1. Kind of assay: SAR analysis of compounds that inhibit NOD1 - Set 2. [Related pubchem assays (depositor defined):AID1566, AID1575, AID1578, AID1849, AID1852, AID2333, AID2335, AID2798]. In kind it is functional.
Assay [9] can be described thus: loss of viability in HepG2 cells – cell-based, CellTiter-Glo, cherry-picked, cytotoxicity control for Shn3 inhibitor project, dose response (AID 624134). In kind it is functional. For orientation: Cellular ATP, detected with luciferase, serves as a proxy for viable cell number.
Assay [10] concerns HEK293. The assay is described as follows: SAR analysis of compounds that are cytotoxic to HEK293 - Set 3. [Related pubchem assays (depositor defined):AID1575, AID1578, AID1848, AID1849, AID2001, AID2333, AID2334, AID2335, AID2337, AID2469]. In kind it is functional, cell-based. Particulars: Homo sapiens.
The target in assay [11] is T1, Nucleotide-binding oligomerization domain-containing protein 1. The assay is described as follows: SAR analysis of NF-kappaB dependent luciferase using DAP as an inducer - Set 2. [Related pubchem assays (depositor defined):AID1566, AID1575, AID1578, AID1579, AID1849, AID1852, AID2264]. In kind it is functional.
For assay [12], the target named is T2, Interleukin-8. The assay is described as follows: SAR analysis of GM-Tri-DAP induced IL-8 secretion in MCF-7/NOD1 cells - Set 2. [Related pubchem assays (depositor defined):AID1575, AID1578, AID2333]. In kind it is functional, cell-based.
The target of the next assay is Tumor necrosis factor (Homo sapiens, UniProt P01375). Kind of assay: analog potency on TNFa NF-kB signaling – cell-based, set 3, SAR follow-up (AID 2801). In kind it is functional.
Tumor necrosis factor, sequence (P01375 whole entry): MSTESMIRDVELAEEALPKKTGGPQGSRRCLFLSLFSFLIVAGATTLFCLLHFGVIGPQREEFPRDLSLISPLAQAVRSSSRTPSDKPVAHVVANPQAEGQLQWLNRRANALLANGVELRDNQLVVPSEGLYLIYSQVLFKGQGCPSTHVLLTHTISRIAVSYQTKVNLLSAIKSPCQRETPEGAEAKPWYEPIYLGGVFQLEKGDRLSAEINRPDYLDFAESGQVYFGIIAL
The next assay addresses SUMO E1/E2 (Homo sapiens, UniProt P63279+Q9UBE0+Q9UBT2). Kind of assay: SAR analysis of SUMOylation using HTRF in an in-Vitro dose response assay. [Related pubchem assays (depositor defined):AID2006, AID2011, AID2018, AID2069, AID2658]. In kind it is functional.
The target in assay [13] is DNA dC->dU-editing enzyme APOBEC-3G (Homo sapiens, UniProt Q9HC16). The assay is described as follows: Dose Response confirmation of small molecule APOBEC3G DNA Deaminase Inhibitors via a fluorescence-based single-stranded DNA deaminase assay. [Related pubchem assays (depositor defined):AID493012, AID493028]. In kind it is functional.
DNA dC->dU-editing enzyme APOBEC-3G, sequence (Q9HC16 whole entry): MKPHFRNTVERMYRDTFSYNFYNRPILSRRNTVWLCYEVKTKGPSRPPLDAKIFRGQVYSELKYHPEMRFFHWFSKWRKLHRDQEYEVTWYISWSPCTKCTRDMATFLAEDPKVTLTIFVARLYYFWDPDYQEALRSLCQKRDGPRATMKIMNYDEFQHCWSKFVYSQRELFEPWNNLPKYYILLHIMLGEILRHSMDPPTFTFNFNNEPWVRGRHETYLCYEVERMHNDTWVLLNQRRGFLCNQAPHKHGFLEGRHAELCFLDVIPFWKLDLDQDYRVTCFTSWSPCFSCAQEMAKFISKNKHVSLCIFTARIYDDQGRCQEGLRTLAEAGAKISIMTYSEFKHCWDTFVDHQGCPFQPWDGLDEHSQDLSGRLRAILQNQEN
Assay [14] has as its target T4, Voltage-gated N-type calcium channel alpha-1B subunit/Amyloid beta A4 precursor protein-binding family A member 1 (Homo sapiens, UniProt Q00975+Q02410). In kind it is protein assay.
The target in assay [15] is T5, Tyrosine-protein phosphatase non-receptor type 7 (Homo sapiens, UniProt P35236).
T5 sequence (P35236 whole entry): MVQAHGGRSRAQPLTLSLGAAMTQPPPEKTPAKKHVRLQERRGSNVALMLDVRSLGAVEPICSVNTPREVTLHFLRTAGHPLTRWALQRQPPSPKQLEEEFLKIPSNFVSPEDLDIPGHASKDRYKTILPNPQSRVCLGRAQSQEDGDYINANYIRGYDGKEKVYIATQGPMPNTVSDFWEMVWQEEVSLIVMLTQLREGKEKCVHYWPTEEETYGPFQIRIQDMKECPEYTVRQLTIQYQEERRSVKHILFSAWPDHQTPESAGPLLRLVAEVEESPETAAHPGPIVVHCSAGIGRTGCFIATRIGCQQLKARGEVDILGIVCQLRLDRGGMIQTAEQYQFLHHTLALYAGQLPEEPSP
In kind it is functional.

For assay [16], the target named is T4, Voltage-gated N-type calcium channel alpha-1B subunit/Amyloid beta A4 precursor protein-binding family A member 1. In kind it is protein assay. The source holds these as a separate data set.
In assay [17] the target is T6, Tyrosine-protein phosphatase non-receptor type 22 (Homo sapiens, UniProt Q9Y2R2).
T6 sequence (Q9Y2R2 whole entry): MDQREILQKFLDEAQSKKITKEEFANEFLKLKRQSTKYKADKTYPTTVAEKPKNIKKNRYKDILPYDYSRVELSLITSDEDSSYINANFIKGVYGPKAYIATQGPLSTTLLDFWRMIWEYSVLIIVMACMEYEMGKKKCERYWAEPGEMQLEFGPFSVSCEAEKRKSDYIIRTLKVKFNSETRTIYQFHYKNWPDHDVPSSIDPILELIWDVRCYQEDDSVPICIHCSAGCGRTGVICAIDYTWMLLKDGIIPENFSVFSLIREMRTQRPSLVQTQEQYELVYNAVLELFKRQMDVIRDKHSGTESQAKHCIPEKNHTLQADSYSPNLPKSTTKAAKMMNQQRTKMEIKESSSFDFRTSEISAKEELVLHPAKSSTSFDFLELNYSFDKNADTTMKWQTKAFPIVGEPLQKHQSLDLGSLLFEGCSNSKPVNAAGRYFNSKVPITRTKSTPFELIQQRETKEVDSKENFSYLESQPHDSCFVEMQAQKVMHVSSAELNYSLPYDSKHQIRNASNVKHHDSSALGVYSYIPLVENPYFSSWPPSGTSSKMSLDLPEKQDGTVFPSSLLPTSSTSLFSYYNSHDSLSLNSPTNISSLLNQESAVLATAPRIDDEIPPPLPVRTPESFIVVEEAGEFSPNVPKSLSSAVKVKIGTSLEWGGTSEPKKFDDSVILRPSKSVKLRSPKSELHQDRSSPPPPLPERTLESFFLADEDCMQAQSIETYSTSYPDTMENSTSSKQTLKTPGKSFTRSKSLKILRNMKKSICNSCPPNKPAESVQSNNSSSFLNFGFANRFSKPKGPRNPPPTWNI
In kind it is functional.

Assay [18] concerns the target T6, Tyrosine-protein phosphatase non-receptor type 22. In kind it is functional. The source holds these as a separate data set.

Active and inactive are the calls of the source. Rule as the data show it, for most assays here: actives have a measured IC50 and inactives only a lower limit.

Among the data in ChEMBL document CHEMBL1201862, “PubChem BioAssay data set” (2004) are AC50 and IC50 values, retold here.

T4 sequence (Q00975 whole entry): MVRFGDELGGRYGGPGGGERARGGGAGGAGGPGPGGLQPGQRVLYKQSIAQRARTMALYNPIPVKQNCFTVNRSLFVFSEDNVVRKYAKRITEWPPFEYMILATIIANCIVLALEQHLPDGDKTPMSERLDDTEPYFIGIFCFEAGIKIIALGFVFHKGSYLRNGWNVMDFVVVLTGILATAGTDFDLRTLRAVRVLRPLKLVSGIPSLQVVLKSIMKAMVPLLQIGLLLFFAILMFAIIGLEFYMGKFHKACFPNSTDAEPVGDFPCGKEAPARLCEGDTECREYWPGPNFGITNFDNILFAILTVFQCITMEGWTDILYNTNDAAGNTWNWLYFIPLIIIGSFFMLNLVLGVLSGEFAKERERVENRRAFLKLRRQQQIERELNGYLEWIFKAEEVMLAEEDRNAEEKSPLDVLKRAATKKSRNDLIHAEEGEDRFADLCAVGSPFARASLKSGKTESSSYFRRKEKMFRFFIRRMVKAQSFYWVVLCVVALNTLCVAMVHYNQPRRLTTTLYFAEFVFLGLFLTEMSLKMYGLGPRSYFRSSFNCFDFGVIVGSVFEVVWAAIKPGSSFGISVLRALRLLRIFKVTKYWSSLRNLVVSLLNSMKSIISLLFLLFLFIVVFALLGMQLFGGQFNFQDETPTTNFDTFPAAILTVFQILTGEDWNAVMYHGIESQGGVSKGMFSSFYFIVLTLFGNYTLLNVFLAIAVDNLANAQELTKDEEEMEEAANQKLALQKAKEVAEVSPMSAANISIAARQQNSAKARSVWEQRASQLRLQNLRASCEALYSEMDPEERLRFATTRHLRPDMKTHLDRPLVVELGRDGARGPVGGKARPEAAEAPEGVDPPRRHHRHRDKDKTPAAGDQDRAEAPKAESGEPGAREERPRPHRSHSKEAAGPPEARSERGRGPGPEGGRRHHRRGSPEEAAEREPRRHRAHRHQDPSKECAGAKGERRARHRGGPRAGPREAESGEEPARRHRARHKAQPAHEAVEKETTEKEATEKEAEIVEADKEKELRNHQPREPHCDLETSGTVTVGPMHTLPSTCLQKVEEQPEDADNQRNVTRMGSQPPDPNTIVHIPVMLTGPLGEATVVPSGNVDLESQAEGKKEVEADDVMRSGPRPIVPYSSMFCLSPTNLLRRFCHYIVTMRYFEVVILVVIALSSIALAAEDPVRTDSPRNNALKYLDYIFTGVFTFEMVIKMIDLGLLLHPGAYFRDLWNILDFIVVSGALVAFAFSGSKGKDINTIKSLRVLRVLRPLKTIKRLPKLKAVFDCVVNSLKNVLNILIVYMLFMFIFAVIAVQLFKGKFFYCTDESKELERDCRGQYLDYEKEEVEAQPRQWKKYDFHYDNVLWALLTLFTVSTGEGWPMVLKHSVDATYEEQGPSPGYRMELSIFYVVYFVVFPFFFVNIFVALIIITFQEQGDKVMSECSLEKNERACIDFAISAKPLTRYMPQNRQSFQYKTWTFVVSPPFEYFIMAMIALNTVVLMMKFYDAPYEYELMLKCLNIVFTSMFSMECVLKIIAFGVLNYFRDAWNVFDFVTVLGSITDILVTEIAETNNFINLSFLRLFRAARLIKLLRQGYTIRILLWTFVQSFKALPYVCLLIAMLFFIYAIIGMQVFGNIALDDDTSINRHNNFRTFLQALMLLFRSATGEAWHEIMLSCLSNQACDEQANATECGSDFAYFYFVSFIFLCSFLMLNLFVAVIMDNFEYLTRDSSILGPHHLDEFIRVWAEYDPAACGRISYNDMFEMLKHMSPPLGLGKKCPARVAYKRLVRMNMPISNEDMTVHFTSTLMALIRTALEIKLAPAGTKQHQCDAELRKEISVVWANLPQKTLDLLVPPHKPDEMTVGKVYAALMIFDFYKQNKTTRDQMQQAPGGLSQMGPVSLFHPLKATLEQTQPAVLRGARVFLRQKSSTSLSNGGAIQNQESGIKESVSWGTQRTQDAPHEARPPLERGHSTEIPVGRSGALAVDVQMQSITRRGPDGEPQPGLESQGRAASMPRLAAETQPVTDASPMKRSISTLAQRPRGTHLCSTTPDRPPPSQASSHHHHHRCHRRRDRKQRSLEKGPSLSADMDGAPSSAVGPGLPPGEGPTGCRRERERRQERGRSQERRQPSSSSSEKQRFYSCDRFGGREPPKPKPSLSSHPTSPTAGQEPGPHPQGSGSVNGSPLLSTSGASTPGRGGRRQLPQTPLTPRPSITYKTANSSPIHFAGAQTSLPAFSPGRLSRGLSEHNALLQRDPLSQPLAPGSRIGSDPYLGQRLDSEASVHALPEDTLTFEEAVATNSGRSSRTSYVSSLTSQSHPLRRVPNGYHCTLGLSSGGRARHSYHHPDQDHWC
T4 sequence (Q02410 whole entry): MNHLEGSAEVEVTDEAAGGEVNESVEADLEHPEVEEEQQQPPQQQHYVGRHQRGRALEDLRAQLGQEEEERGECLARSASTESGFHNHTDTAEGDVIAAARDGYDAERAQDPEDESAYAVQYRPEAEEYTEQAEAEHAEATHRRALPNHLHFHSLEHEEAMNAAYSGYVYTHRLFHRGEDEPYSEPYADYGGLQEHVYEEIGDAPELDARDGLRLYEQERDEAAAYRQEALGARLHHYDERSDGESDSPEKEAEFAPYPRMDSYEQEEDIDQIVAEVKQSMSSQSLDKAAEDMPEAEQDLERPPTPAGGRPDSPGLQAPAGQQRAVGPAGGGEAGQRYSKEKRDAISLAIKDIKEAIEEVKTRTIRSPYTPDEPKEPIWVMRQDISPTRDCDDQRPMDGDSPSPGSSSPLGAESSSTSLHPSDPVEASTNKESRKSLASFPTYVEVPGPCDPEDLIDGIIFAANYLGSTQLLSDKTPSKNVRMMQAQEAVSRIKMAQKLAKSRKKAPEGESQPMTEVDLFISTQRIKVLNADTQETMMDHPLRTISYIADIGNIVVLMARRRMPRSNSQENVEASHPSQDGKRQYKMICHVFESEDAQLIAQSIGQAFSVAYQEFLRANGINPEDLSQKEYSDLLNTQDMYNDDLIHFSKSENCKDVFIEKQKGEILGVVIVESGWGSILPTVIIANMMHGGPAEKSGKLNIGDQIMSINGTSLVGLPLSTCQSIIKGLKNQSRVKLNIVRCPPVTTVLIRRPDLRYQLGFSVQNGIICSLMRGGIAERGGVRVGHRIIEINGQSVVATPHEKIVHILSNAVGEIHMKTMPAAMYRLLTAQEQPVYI
T3 sequence (Q9HC29 whole entry, the tested form may be a part): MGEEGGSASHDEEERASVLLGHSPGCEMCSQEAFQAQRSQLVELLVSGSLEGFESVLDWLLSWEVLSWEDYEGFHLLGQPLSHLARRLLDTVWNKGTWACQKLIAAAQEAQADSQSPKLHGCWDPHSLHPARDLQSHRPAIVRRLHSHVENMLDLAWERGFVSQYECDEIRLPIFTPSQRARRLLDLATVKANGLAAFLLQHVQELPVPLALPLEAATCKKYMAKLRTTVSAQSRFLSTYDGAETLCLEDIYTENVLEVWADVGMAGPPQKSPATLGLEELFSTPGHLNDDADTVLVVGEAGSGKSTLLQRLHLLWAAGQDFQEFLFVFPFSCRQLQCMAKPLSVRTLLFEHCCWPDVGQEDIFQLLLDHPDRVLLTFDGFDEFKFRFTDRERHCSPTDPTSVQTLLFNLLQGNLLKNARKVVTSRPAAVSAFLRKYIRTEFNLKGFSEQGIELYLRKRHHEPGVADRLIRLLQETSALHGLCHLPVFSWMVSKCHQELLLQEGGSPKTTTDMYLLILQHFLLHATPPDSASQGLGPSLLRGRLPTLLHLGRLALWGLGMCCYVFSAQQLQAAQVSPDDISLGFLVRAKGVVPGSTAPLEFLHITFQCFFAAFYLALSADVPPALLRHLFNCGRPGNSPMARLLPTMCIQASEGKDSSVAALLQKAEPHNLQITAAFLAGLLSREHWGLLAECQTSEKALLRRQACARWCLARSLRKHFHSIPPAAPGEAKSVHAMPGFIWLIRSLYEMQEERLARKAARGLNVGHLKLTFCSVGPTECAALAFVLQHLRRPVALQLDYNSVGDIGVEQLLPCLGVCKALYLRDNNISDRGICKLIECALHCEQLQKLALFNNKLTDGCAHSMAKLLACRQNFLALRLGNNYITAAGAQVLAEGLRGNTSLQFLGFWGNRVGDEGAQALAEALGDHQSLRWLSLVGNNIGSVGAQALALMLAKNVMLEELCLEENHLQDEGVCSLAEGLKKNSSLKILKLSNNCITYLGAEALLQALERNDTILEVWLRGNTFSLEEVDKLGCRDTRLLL

For the compound `C/C(Cl)=C\Cn1c(NCCc2ccccc2)nc2c1c(=O)n(C)c(=O)n2C`, the AC50 (commonly the midpoint of the concentration-response curve, whichever way the signal moves) was 0.283 µM (active) in assay [1], 0.493 µM (active) in assay [3] and 59.4 µM (active) in assay [9]. The IC50 (in general, the point on the concentration scale where inhibition reaches its midpoint) was 4.13 µM (active) in assay [2]; > 25 µM (inactive) on Interleukin-8 [4]; > 20 µM (inactive) with HEK293 [5]; 3.05 µM (active) in assay [6]; 2.5 µM (active) in [7]; 2.61 µM (active) in [8]. Moreover, the IC50 is > 20 µM (inactive) in the assay on HEK293 [10], > 25 µM (inactive) in [11], > 25 µM (inactive) at Interleukin-8 [12] and 5.66 µM (active) on Tumor necrosis factor.

`O=C1c2oc3ccccc3c(=O)c2C(c2ccc(O)cc2)N1c1nccs1` (stereo not given): the IC50 on SUMO E1/E2 was 28.7 µM (active).

With `COc1ccc(NC(=O)CN2C(=O)/C(=C3\SC(=S)N(CCC(=O)O)C3=O)c3ccccc32)cc1`, the IC50 in assay [13] was 40.9 µM (active); in [14], > 50 µM (inactive); in assay [15] it was 6.84 µM (active); in assay [16] it was 14.5 µM (active); in [17], 6.11 µM (active); in assay [18], 13.8 µM (active).
